Laboratory results as given in a melting point compilation (Tetko et al.; mined from patent text by program, amines drawn as free bases though some values may be those of a salt).

Row | SMILES | melting point [°C]
1 | COc1ccc2c(c1)c1cc(OC)ccc1c1[nH]c(S(=O)(=O)C(F)(F)F)nc21 | 228 to 231
2 | CCOC(=O)C1=C(C)NC(C)=C(C(=O)OCC)C1c1cc2cnccc2s1 | 204 to 205
3 | CN(C)C1(C#N)CCCCC1 | 36
4 | O=C(O)CNS(=O)(=O)c1ccc(N2CCC(c3ccccc3)CC2)cc1 | 154 to 156
5 | Cn1cc(-c2ccc(Cl)c(C(F)(F)F)c2)c(=O)c(-c2cccs2)c1 | 166 to 168
6 | Cc1nc2c(N)nc3ccccc3c2n1OCCOc1ccccc1 | 237 to 239
7 | CCN(c1ccc(Cl)cc1C(N)=O)S(=O)(=O)c1ccc(C)cc1 | 148 to 150
8 | COc1ccc(CN2C(=O)NC(=O)C2O)cc1OC (stereo unspecified) | 143 to 144
9 | ClCc1coc(-c2ccc(OCc3ccccc3)cc2)n1 | 119 to 120
10 | Nc1ccc(-c2ccncc2)cc1 | 232 to 234
11 | C=CCNC(=O)c1c(O)c2ccc(Cl)cc2n(C)c1=N | 212 to 214
12 | Clc1ccc(N=c2ccn3ccccc3c2)cc1 | 183 to 184
13 | Cc1ccccc1C(=S)NC(=O)Nc1ccc(Cl)cc1 | 211
14 | COc1cc(C)c2c(c1OC)CCC1C(=O)N(C)C(=O)C21 (stereo unspecified) | 167 to 169
15 | O=C1NCCN1CCN1CCN([C@@H]2C[C@@H](c3ccc(F)cc3)c3ccccc32)CC1 | 94 to 97
16 | O=C1NC(=O)C2(c3ccc4ncccc4n3)C=CC=CC12 (stereo unspecified) | 206
17 | O=S(=O)(CC1CS1)c1ccc(Oc2ccccc2)cc1 (stereo unspecified) | 99 to 101
18 | CC(C)Nc1nn(C)c(=O)c2cn(Cc3cccc4ccccc34)cc12 | 221 to 222
19 | O=c1ccc(S(=O)(=O)c2ccc(-c3ccccc3)cc2)n[nH]1 | 219 to 220

Row | SMILES | melting point [°C]
20 | CCCc1c(CSc2nnc(SCCCCCC(=O)O)s2)ccc(C(C)=O)c1O | 67 to 74
21 | O=C1Nc2ccc(Br)cc2C12CCCCC2 | 196 to 199
22 | O=C(O)CNc1ccc2ccccc2c1 | 219 to 221
23 | Clc1cc(Cl)c(Cl)c(CBr)c1 | 40 to 42
24 | COC(=O)c1ccc(CN2CC2C#N)c(OC)n1 (stereo unspecified) | 156 to 158
25 | CC(=O)Oc1cccc(C(=O)N[C@@H](Cc2ccccc2)[C@H](OC(C)=O)C(=O)O)c1C | 152 to 154
26 | FCc1cccc(C#CCCc2ccc3ccccc3n2)n1 | 70.2 to 74.3
27 | CN(Cc1ccccc1)CC1CNC(=O)c2cccc3[nH]cc1c23 (stereo unspecified) | 191 to 193
28 | CC(C)Oc1cccc(-c2nc3ncccc3o2)c1 | 68.5 to 70.5
29 | COc1nc(NC(=N)SC)nc(OC)n1 | 94 to 100
30 | CC(C)(NC(N)=O)C(=O)NCCO[N+](=O)[O-] | 98 to 100
31 | CCCCc1nc2c(N)nc3ccccc3c2n1CCNS(=O)(=O)c1ccc(C)cc1 | 187 to 188
32 | CCOC(=O)N1CCN(c2nc(NC3CC3)ccc2[N+](=O)[O-])CC1 | 100 to 103
33 | CCc1cc(C(=O)O)ccc1O | 134 to 136
34 | CCOC(=O)CC1CN=C(c2cc3cccc(N(C)S(=O)(=O)c4cccs4)c3[nH]2)S1 (stereo unspecified) | 101 to 102
35 | O=C(CNCc1ccc(OCc2ccccc2)cc1)NCCCOc1ccccc1 | 55 to 56
36 | O=Cc1ccc2c(c1)S(=O)c1ccccc1CC2 (stereo unspecified) | 158 to 160
37 | COc1ccc(C(=O)Nc2ccccc2)cc1NCc1ccc(F)c(F)c1 | 150 to 152
38 | CC(C)(C)OC(=O)C(=[N+]=[N-])C(=O)CCl | 40 to 41

Row | SMILES | melting point [°C]
39 | Cc1nccn1-c1ccc(N)cc1C(F)(F)F | 117 to 119
40 | CNC(=O)C(C)NC(=O)OC(C)(C)C (stereo unspecified) | 117 to 118
41 | CCOC(=O)CC(=O)Nc1ccc(F)cc1F | 66 to 68
42 | CCOC(=O)c1cn(NCC=O)c2c(F)c(F)c(F)cc2c1=O | 185
43 | CC(=O)N1CCN(CCc2ccc(-c3cccc(N)n3)cc2)CC1 | 201 to 203
44 | CN(C(=O)CCCOc1ccc2nc3n(c(=O)c2c1)CC(=O)N3)C1CCCCC1 | 200 to 202
45 | Nc1c([N+](=O)[O-])cc(C(F)(F)F)cc1[N+](=O)[O-] | 142 to 144
46 | CN(C(CCn1c(=O)cc(Cl)n(C)c1=O)C(=O)O)S(=O)(=O)c1ccc(Oc2ccccc2)cc1 (stereo unspecified) | 115 to 117
47 | O=C1c2cccc3cccc(c23)C(=O)N1CCI | 222 to 224
48 | O=C(O)c1ccc2c(c1)C(=O)CCC2 | 210 to 215
49 | CCC(=O)Nc1cc(-c2ccnc(Nc3cccc(Cl)c3)n2)ccn1 | 215 to 216
50 | COc1ccc(Cl)cc1C(O)C(N)=O (stereo unspecified) | 121 to 123
51 | CCc1nn(Cc2ccccn2)c2c(=O)[nH]c(-c3cc(S(C)(=O)=O)ccc3OCCOC)nc12 | 166 to 167
52 | O=C(Nc1ccc(N2CCOCC2=O)cc1)[C@H]1CCCN1C(=O)Nc1ccc(Cl)cc1 | 228
53 | CCCCCC(=O)CCCC(=O)O | 54 to 55
54 | O=C(Nc1ccc(NC(=S)NCc2ccccc2)cc1)c1ccc(NC(=S)NCc2ccccc2)cc1 | 207
55 | FC(F)(F)c1nc[nH]n1 | 89
56 | O=c1c(OC(F)F)cn(-c2cccc(C(F)(F)F)c2)nc1-c1ccnn1-c1ccccc1 | 132 to 134
57 | Fc1ccc2[nH]cc(C3=CCN(CC4COc5ccc6c(c5O4)CCCO6)CC3)c2c1 (stereo unspecified) | 205 to 206

Further lines, results first:

Row | melting point [°C] | SMILES
58 | 195 to 198 | Cc1cc([C@H]2[C@H](C(=O)Nc3ccc(F)c(F)c3)C2(C)C)ccc1S(N)(=O)=O (relative stereo)
59 | 170 to 171 | COc1nc(O)cc(=O)n1C
60 | 227 to 232 | Cc1cc(-c2ccc(C(F)(F)F)nc2)cc(-c2cccc(-c3cccc(S(N)(=O)=O)c3)c2)n1
61 | 218 to 220 | NC(=O)c1ccccc1C1c2ccc(Cl)cc2Oc2cc(Cl)ccc21
62 | 83 to 84 | CCCCNC(=O)Oc1ccc2c(c1)c(C)cn2NCCCc1ccncc1F
63 | 156 | N#C/C=C/c1ccc(Cl)cc1Cl
64 | 142 to 145 | COC(C(=O)O)C(=O)Nc1cc(Cl)cc(Cl)c1 (stereo unspecified)
65 | 185 | COCC(=O)OC1(C(=O)CO)CCC2C3CCC4=CC(=O)CCC4(C)C3C(O)CC21C (stereo unspecified)
66 | 226 to 227 | O=C1CN(C(=O)c2ccccc2)c2cc(F)ccc2N1
67 | 210 to 211 | O=C(O)C1=Cc2cc(Cl)cc(C#Cc3ccc(Cl)cc3)c2OC1C(F)(F)F (stereo unspecified)
68 | 86 to 88 | Cc1cccc(CC(Cc2cccc(C)c2)C(=O)O)c1
69 | 208 to 210 | Cn1ccc(=S)c2ccccc21
70 | 222 to 224 | COC(=O)c1c(-c2ccc(C)cc2)ccnc1O
71 | 172 to 174 | ON=CNc1ccc(N2CCOCC2)nc1
72 | 221 to 222 | Nc1cnc(-c2ccncc2)c(-c2cccc(F)c2)n1
73 | 140 to 143 | CCOC(=O)C(C=O)Cc1ccn(Cc2ccccc2)c(=O)c1 (stereo unspecified)
74 | 93 to 94 | COC(=O)c1ccc(CNS(C)(=O)=O)cc1S(=O)(=O)Cl
75 | 166 to 167 | CC(C)(C)OC(=O)Nc1ccc2ccc(S(C)(=O)=O)cc2c1Br
76 | 123 to 124 | CNC(=O)C#CCc1ccc(OC)cc1
77 | 242 | O=C(O)c1cn(-c2ccc(F)cc2)c2cc(N3CCNC(c4ccco4)C3)c(F)cc2c1=O (stereo unspecified)
78 | 126 to 128 | CCCn1cc(S(C)=O)c(=O)c2ccccc21 (stereo unspecified)
79 | 151 | O=C1CC2(CCCC2)C(O)C(=O)N1CCCCN1CCN(c2nsc3ccccc23)CC1 (stereo unspecified)
80 | 84 to 85 | CCOC(=O)c1ccc2nccc(Cl)c2c1
81 | 95 to 96 | CCOC(=S)c1ccc2sc(CCl)c(C)c2c1
82 | 227 to 232 | O=[N+]([O-])c1ccc2nc(-c3ccc(Cl)cc3)sc2c1

Row | melting point [°C] | SMILES
83 | 91 | CN1C(O)=C(c2ccccc2)N=NC1(C)N (stereo unspecified)
84 | > 320 | COc1ccc(C=Cc2nc3c([nH]2)c(=O)n(C)c(=O)n3C)cc1
85 | 103 to 105 | COc1ccc(-c2cc(-c3ccc(-c4c(Cc5ccccc5)sc5ccccc45)c(Br)c3)ccc2OCC(=O)O)cc1OC
86 | 172 to 175 | CN(CC1CCN(c2ccc(OC(F)(F)F)cc2)CC1)c1ccc(OC[C@@]2(C)Cn3cc([N+](=O)[O-])nc3O2)cc1
87 | 138 to 139 | CCCCCC(=O)O[C@H]1C[C@H](O)C=C2C=C[C@H](C)[C@H](CC[C@@H]3C[C@@H](O)CC(=O)O3)[C@H]21
88 | 145 to 147 | Clc1ccc(-c2ccccc2Cl)nn1
89 | 169 to 172 | Fc1ccc2nc(-c3ccc(Cl)cc3)cc(Cl)c2c1
90 | 97 to 98 | COc1cc(OC)cc(N2CCN(C(=O)Nc3cc(-c4ccccn4)nc4ccccc34)CC2)c1
91 | 190 to 192 | O=C(NCc1cccnc1)c1cnc(N2CCN(CC3CC3)C2=O)s1
92 | 249 to 252 | COc1cccc(-c2ccnc3c(C(N)=O)ncn23)c1
93 | 138 to 141 | CC(C)(C)NCC(O)COc1ccccc1C1=NNC(=O)CC1 (stereo unspecified)
94 | 144 to 146 | Cn1cc(-c2ccc(Br)cc2)c(=O)c(-c2cccc(C(F)(F)F)c2)c1
95 | 220 to 225 | O=C(O)C=Cc1ccc(-c2ccc(-c3cccs3)s2)s1
96 | 117 to 118 | O=Cc1c(Cl)nc(-c2ccccc2)n1Cc1ccccc1
97 | 69 to 70 | CCCCc1noc(-c2sccc2N)n1
98 | 194 to 195 | COc1ccc(S(=O)(=O)N2C(=O)[C@@](c3ccccc3OC)(N3C[C@H](OC(C)=O)C[C@H]3C(=O)N(C)C)c3cc(Cl)ccc32)c(OC)c1
99 | 207 to 208 | Cc1c(Br)c2c(c(C)c1NC(=O)CC(C)(C)C)C(c1ccc(C(C)C)cc1)CS2 (stereo unspecified)
100 | 177 | CC(C)(C)OC(=O)n1cccc1-c1ccc2c(c1)C1(CCCCC1)C(=O)N2
101 | 98 to 100 | COC(=O)C(C)Oc1ccc(NC(=O)OCCOC(=O)Nc2ccc(OC(C)C(=O)OC)cc2)cc1 (stereo unspecified)
102 | 108 to 112 | O=Cc1ccc(-c2ccc(Cl)cc2)cc1
103 | 176 to 177 | CS(=O)c1ccc(-c2coc3ccc(-c4nnc(SCc5cccc(C(F)(F)F)c5)o4)cc23)cc1 (stereo unspecified)
104 | 151 | CC(C)(CCc1cc2cc(Cl)ccc2n1S(=O)(=O)c1ccc2ncsc2c1)C(=O)O
105 | 184 | COc1cc2ncc(C(=O)NCc3ccc(Cl)cc3)c(O)c2cc1OC
106 | 190 to 193 | CC1(C)COC(c2ccccc2-c2ccc(C(=O)O)cc2)=N1
